Where a name gives a salt, the structure may show the parent alone.
Experiments:
[1] = test system: KBM-5 chronic myeloid leukemia cells; experiment: In vivo antitumor activity (survival) in mice bearing KBM-5 cells
Method: (§1) Three to five week-old ICR SCID female mice weighting 20-25 g were obtained from Taconic farms. They were acclimatized for a week prior to the experiment. The animals were maintained on a standard animals feed and drinking water ad libitum. Mice were housed in an air-conditioned room at the temperature of 22±1° C. and 50-70% humidity with a 12/12 h-light/dark cycle throughout the experiment.
(§2) Mice were irradiated (1×250 centigray; cGy) and injected i.p. with 2×10^7 or 2,4×10^7 KBM-5 or KBM-5R tumor cells, respectively. […] In primary experiments (with KBM-5 cells) or secondary experiments (with KBM-5R cells), tumor-bearing animals were randomised (8-10 per group and treated by Troxatyl™ i.p. at 5, 10, 20, or 25 mg/kg once a day for 5 consecutive days (days 20-24). Control (untreated) mice received saline. In third experiments (with KBM-5 cells), tumor bearing animals (6 per group) were treated by one of the following schemes:
(§3) Animals in complete remission, free of detectable tumor (negative for human DQα-gen) were considered cured.
(§4) LTS were electively sacrificed on Day 95 in single agent experiments or on Day 100 in combination treatment experiment.

KBM-5 cells = conditions: KBM5 cells
Method: (§5) Two human CML, Ph+, p210 Bcr-Abl expressing cell lines were used, namely, KBM-5 and KBM-7. KBM-5 represents cells derived from a patient in the blastic phase of CML and is remarkable for the absence of normal c-ABL. KBM-7 has been identified to be a human near-haploid cell line.
(§6) The cells were cultured in Iscove's modified Dulbecco's medium supplemented with 10% fetal calf serum (Invitrogen Corp., Carlsbad, Calif.) at 37° C. in atmosphere of 5% CO2 in air.
(§7) Briefly, cells were seeded in triplicate in 96-well microtiter plates (Falcon, USA) at a concentration of 4×10^5 cells/ml. After exposure to the drug(s) for 72 h, 20 μl of MTS solution were added to each well, the plates were incubated for additional 4 h at 37° C., and absorbance at 490 nm was measured.

KBM-7 cells = conditions: KBM7 cells
Method: as §5, §6, §7

[2] = test system: KBM-5R chronic myeloid leukemia cells (STI-571 resistant); experiment: In vivo antitumor activity (survival) in mice bearing KBM-5R cells; conditions: for ILS % / Median survival time / Rang survival time / T/C %: qd × 5; for LTS (long term survivors): qd × 5, sacrificed Day 95
Method: as §1, §2, §3, §4

[3] = KBM-5, third (combination) experiment, 50 mg/kg ip, bid × 10
[4] = KBM-5, primary experiment, 5 mg/kg ip, qd × 5
[5] = KBM-5, primary experiment, 10 mg/kg ip, qd × 5
[6] = KBM-5, primary experiment, 20 mg/kg ip, qd × 5
[7] = KBM-5, primary experiment, 25 mg/kg ip, qd × 5
[8] = KBM-5, third (combination) experiment, 10 mg/kg ip, qd × 5
[9] = KBM-5, third (combination) experiment, 25 mg/kg ip, qd × 5

Method for KBM5-STI^R1.0 cells: (§8) In vitro growth inhibition effect of adaphostin on leukemic cells was determined by measuring MTS (CellTiter 96®Aqueous One Solution Reagent, Promega Corporation, WI) dye absorbance by living cells. Briefly, cells were seeded in triplicate in 96-well microtiter plates (Falcon, USA) at a concentration of 4×10^5 cells/ml. After exposure to the drug(s) for 72 h, 20 μl of MTS solution were added to each well, the plates were incubated for additional 4 h at 37° C., and absorbance at 490 nm was measured.
Method for KBM7-STI^R1.0 cells: as §8

What does the source list for `Cc1ccc(NC(=O)c2ccc(CN3CCN(C)CC3)cc2)cc1Nc1nccc(-c2cccnc2)n1` [STI-571, imatinib mesylate]?
ILS % [1, 3]: 8.95%; Median survival time [1, 3]: 31.16 days; Rang survival time [1, 3]: 26 to 40 days; response to STI-571 exposure (KBM-5 cells): G0/G1 cell cycle arrest; response to STI-571 exposure (KBM-7 cells): apoptosis; STI-571 concentration up to which cells still proliferated (KBM5-STI^R1.0 cells): up to 10 μM; STI-571 concentration at which proliferation was almost completely abolished (KBM7-STI^R1.0 cells): 7.5 µM

With `Nc1ccn([C@@H]2CO[C@H](CO)O2)c(=O)n1` [Troxatyl ™, (−)-β-L-Dioxolane-Cytidine] as the molecule, how does the ILS % [1, 4] read?
The ILS % was 57.09%.

What about the Median survival time [1, 4] of the same molecule?
Its Median survival time is 54 days.

And the Rang survival time [1, 4]?
Its Rang survival time is 46 to 66 days.

And the T/C % [1, 4]?
Its T/C % is 157.09%.

What about the “LTS (long term survivors)” value ([1]; KBM-5, primary experiment, 5 mg/kg ip, qd × 5, sacrificed Day 95) of the same molecule?
Its value is 1.

What about the ILS % [1, 5] of the same molecule?
Its ILS % is 45.45%.

What about the Median survival time [1, 5] of the same molecule?
Its Median survival time is 50 days.

What about the Rang survival time [1, 5] of the same molecule?
Its Rang survival time is 44 to 66 days.

What about the T/C % [1, 5] of the same molecule?
Its T/C % is 145.45%.

And the ILS % [1, 6]?
The ILS % was 33.82%.

What about the Median survival time [1, 6] of the same molecule?
The Median survival time was 46 days.

What about the Rang survival time [1, 6] of the same molecule?
The Rang survival time was 36 to 58 days.

And the T/C % [1, 6]?
Its T/C % is 133.82%.

What about the ILS % [1, 7] of the same molecule?
Its ILS % is 68.73%.

And the Median survival time [1, 7]?
Its Median survival time is 58 days.

And the Rang survival time [1, 7]?
The Rang survival time was 35 to 74 days.

And the T/C % [1, 7]?
The T/C % was 168.73%.

And the ILS % [1, 8]?
Its ILS % is 50.90%.

And the Median survival time [1, 8]?
The Median survival time was 43.16 days.

What about the Rang survival time [1, 8] of the same molecule?
The Rang survival time was 38 to 50 days.

What about the T/C % [1, 8] of the same molecule?
The T/C % was 150.9%.

What about the ILS % [1, 9] of the same molecule?
Its ILS % is 71.33%.

And the Median survival time [1, 9]?
The Median survival time was 49 days.

What about the Rang survival time [1, 9] of the same molecule?
Its Rang survival time is 40 to 56 days.

What about the T/C % [1, 9] of the same molecule?
Its T/C % is 171.33%.

And the ILS % ([2]; 5 mg/kg ip)?
The ILS % was 13.93%.

And the Median survival time ([2]; 5 mg/kg ip)?
Its Median survival time is 37.142 days.

And the Rang survival time ([2]; 5 mg/kg ip)?
The Rang survival time was 36 to 50 days.

What about the T/C % ([2]; 5 mg/kg ip) of the same molecule?
The T/C % was 113.93%.

And the “LTS (long term survivors)” value ([2]; 5 mg/kg ip)?
The value was 2.

What about the ILS % ([2]; 10 mg/kg ip) of the same molecule?
Its ILS % is 50.64%.

And the Median survival time ([2]; 10 mg/kg ip)?
Its Median survival time is 49.11 days.

And the Rang survival time ([2]; 10 mg/kg ip)?
Its Rang survival time is 36 to 69 days.

What about the T/C % ([2]; 10 mg/kg ip) of the same molecule?
Its T/C % is 150.64%.

What about the ILS % ([2]; 20 mg/kg ip) of the same molecule?
The ILS % was 56.84%.

What about the Median survival time ([2]; 20 mg/kg ip) of the same molecule?
Its Median survival time is 51.13 days.

What about the Rang survival time ([2]; 20 mg/kg ip) of the same molecule?
The Rang survival time was 37 to 69 days.

What about the T/C % ([2]; 20 mg/kg ip) of the same molecule?
The T/C % was 156.84%.

What about the ILS % ([2]; 25 mg/kg ip) of the same molecule?
The ILS % was 54.66%.

And the Median survival time ([2]; 25 mg/kg ip)?
The Median survival time was 50.42 days.

What about the Rang survival time ([2]; 25 mg/kg ip) of the same molecule?
The Rang survival time was 35 to 69 days.

What about the T/C % ([2]; 25 mg/kg ip) of the same molecule?
The T/C % was 154.66%.

And the “LTS (long term survivors)” value ([2]; 25 mg/kg ip)?
The value was 1.

From patent US20040192652A1, “Pharmaceutical combinations and methods for the treatment of leukemia” (priority 2002, published 2004)
